We go through 8 molecules from ChEMBL document CHEMBL5230110, “FabI (enoyl acyl carrier protein reductase) - A potential broad spectrum therapeutic target and its inhibitors” (Eur J Med Chem, 2020).

The subject of assay [1] is Escherichia coli. The assay is described as follows: Antibacterial activity against Escherichia coli assessed as inhibition of LPS biosynthesis. The format is functional.
Assay [2] has as its system Escherichia coli. The assay is described as follows: Antibacterial activity against Escherichia coli assessed as bacterial growth inhibition at 50 uM measured after 24 hrs by 96-wellplate reader assay method. The assay is classed as functional.
A short description of assay [3]: Inhibition of Plasmodium falciparum NF54 HDAC using extract measured after 60 mins by fluorescence assay. As to conditions: read-out: IC50.
The next assay deals with Plasmodium falciparum. Put plainly: Antimalarial activity against Plasmodium falciparum by LDH assay. The format is functional, organism-based.
The test system of assay [4] is Staphylococcus aureus. The assay is described as follows: Antibacterial activity against Staphylococcus aureus assessed as inhibition of bacterial growth measured after 24 hrs. The format is functional.
Assay [5] relates to Mycobacterium tuberculosis. Put plainly: Antimycobacterial activity against Mycobacterium tuberculosis H37Rv after 14 days. The following applies: 336 h, time 14 day. The format is functional.
In assay [6] the test system is Acinetobacter baumannii. The assay is described as follows: Antibacterial activity against Acinetobacter baumannii W41979 assessed as inhibition of bacterial growth measured after 24 hrs by micro-dilution broth method. The format is functional.
Assay [7] concerns Staphylococcus aureus. The assay is described as follows: Antibacterial activity against Staphylococcus aureus assessed as inhibition of bacterial growth measured after 24 hrs by micro-dilution broth method. The assay is classed as functional. On the technique in general: In broth dilution the organism is exposed to a series of concentrations in liquid medium.
The subject of a further assay is Pseudomonas aeruginosa. The assay is described as follows: Antibacterial activity against Pseudomonas aeruginosa assessed as bacterial growth inhibition measured after 24 hrs by micr-dilution broth method. The assay is classed as functional.
The subject of another assay is Enterobacter cloacae. Put plainly: Antibacterial activity against Enterobacter cloacae assessed as inhibition of bacterial growth measured after 24 hrs by micro-dilution broth method. The format is functional.
Assay [8] has as its system Klebsiella pneumoniae. Put plainly: Antibacterial activity against Klebsiella pneumoniae BAA-1705 assessed as inhibition of bacterial growth measured after 24 hrs by micro-dilution broth method. The assay is classed as functional.
In assay [9] the test system is Escherichia coli. Put plainly: Antibacterial activity against Escherichia coli assessed as inhibition of bacterial growth measured after 24 hrs by micro-dilution broth method. The format is functional.
Assay [10] concerns Mycobacterium tuberculosis. The assay is described as follows: Antibacterial activity against Mycobacterium tuberculosis assessed as inhibition of […]. The assay is classed as functional.
The test system of assay [11] is Staphylococcus epidermidis. The assay is described as follows: Antibacterial activity against Methicillin-resistant Staphylococcus epidermidis ATCC 35984 assessed as reduction in bacterial growth. The assay is classed as functional.
Assay [12] concerns Staphylococcus aureus. The assay is described as follows: In vivo antibacterial activity against methicillin-resistant Staphylococcus aureus infected in murine assessed as reduction in bacterial burden. The assay is classed as functional.
Assay [13] addresses T1, Enoyl-[acyl-carrier-protein] reductase [NADPH] FabI (Staphylococcus aureus, UniProt Q6GI75).
T1 sequence (Q6GI75 whole entry): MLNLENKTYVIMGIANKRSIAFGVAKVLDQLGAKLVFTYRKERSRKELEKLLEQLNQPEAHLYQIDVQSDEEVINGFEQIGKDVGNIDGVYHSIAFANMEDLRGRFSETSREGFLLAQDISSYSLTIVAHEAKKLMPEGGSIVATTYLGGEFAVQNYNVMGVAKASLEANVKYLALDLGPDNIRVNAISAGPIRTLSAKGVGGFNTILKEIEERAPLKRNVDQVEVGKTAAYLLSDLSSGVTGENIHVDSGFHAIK
The assay is described as follows: Inhibition of Staphylococcus aureus FabI assessed as inhibition of bacterial growth by measuring the NADH consumption rate at 20 mins.

For assay [14], the system named is Acinetobacter baumannii. The assay is described as follows: Antibacterial activity against Acinetobacter baumannii W41979. The format is functional.
In assay [15] the test system is Escherichia coli. The assay is described as follows: Antibacterial activity against Escherichia coli BAA 2340 assessed as reduction in microbial growth inhibition. The assay is classed as functional.
The test system of assay [16] is Klebsiella pneumoniae. Put plainly: Antibacterial activity against Klebsiella pneumoniae BAA-1705. The format is functional.
Assay [17] deals with Staphylococcus epidermidis. Put plainly: Antibacterial activity against methicillin-sensitive Staphylococcus epidermidis assessed as reduction in bacterial growth incubated for 12 hrs by microdilution method. The assay is classed as functional.
Assay [18] has as its system Staphylococcus aureus. Put plainly: Antibacterial activity against methicillin-sensitive Staphylococcus aureus assessed as reduction in bacterial growth incubated for 12 hrs by microdilution method. The format is functional.
Assay [19] relates to Staphylococcus aureus. The assay is described as follows: Antibacterial activity against Staphylococcus aureus ATCC 29213 assessed as bacterial growth inhibition incubated for 24 hrs by broth dilution method. The format is functional.
For assay [20], the system named is Staphylococcus epidermidis. The assay is described as follows: Antibacterial activity against methicillin-resistant Staphylococcus epidermidis assessed as reduction in bacterial growth incubated for 12 hrs by microdilution method. The format is functional.
For assay [21], the target named is T1, Enoyl-[acyl-carrier-protein] reductase [NADPH] FabI. Put plainly: Inhibition of Staphylococcus aureus ATCC 29213 FabI in the presence of NADH using crotonyl CoA as substrate by measuring NADH consumption rate.
The subject of assay [22] is Staphylococcus aureus. Put plainly: Antibacterial activity in Swiss albino mouse model infected with Methicillin- sensitive Staphylococcus aureus ATCC 29213 assessed as reduction in bacterial growth. The format is functional.
Assay [23] has as its target T2, Enoyl-[acyl-carrier-protein] reductase [NADH] FabI (Escherichia coli K-12, UniProt P0AEK4).
T2 sequence (P0AEK4 whole entry): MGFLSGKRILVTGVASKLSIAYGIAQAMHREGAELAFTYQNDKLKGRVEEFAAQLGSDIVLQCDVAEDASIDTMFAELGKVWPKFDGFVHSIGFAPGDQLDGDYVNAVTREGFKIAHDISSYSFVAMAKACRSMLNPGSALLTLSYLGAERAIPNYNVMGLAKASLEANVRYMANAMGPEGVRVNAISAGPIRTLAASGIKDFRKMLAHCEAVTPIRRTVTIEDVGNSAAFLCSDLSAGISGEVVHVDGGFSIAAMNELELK
The assay is described as follows: Inhibition of Escherichia coli FabI in the presence of NADH using crotonyl CoA as substrate by measuring NADH consumption rate.

In assay [24] the test system is Staphylococcus aureus. Put plainly: Antibacterial activity against methicillin-susceptible Staphylococcus aureus assessed as reduction in bacterial growth. The assay is classed as functional.
The target in assay [25] is T2, Enoyl-[acyl-carrier-protein] reductase [NADH] FabI. Put plainly: Inhibition of Escherichia coli DH5alpha FabI in the presence of NADH using crotonyl CoA as substrate by measuring NADH consumption rate.
For assay [26], the system named is Staphylococcus aureus. The assay is described as follows: Antibacterial activity against methicillin resistant Staphylococcus aureus assessed as reduction in bacterial growth incubated for 12 hrs by microdilution method. The assay is classed as functional.
For assay [27], the system named is Staphylococcus aureus. The assay is described as follows: Antibacterial activity in Swiss albino mouse model infected with Methicillin-resistant Staphylococcus aureus NRS 382 assessed as reduction in bacterial growth. The assay is classed as functional.

SMILES strings stand for the structures. pIC50: −log10 of the molar value. Converted amounts (≈) assume the structure as drawn.

One may read the MIC as the lowest concentration found to suppress growth. Consider `CCCS(=O)(=O)N1N=Cc2cc(C)sc2B1O`, for which the minimal inhibitory concentration (MIC) with Escherichia coli [1] was found to be 1.25 µg/mL (≈ 4.59 µM).

One may read the pIC50 as −log10 of the IC50, conventionally taken in molar units. Usually EC50 stands for the midpoint of the concentration-response curve. The low end stands for greater potency, the high end for weaker potency. Consider `Oc1cc(Cl)ccc1Oc1ccc(Cl)cc1Cl` [TRICLOSAN], for which the MIC in the assay with Escherichia coli [2] was determined as 0.3 µg/mL (≈ 1.04 µM); in the assay with Staphylococcus aureus [4] it was 0.016 µg/mL (≈ 0.0553 µM); in assay [5] it was 12.5 µg/mL (≈ 43.2 µM). In addition, in assay [3], the pIC50 was 7.14. This molecule displayed an EC50 in the assay with Plasmodium falciparum of 0.8 µg/mL (≈ 2.76 µM).

As to `Cc1cc(=O)n(C)c2c3c4c(cc12)c(C)cc(=O)n4CCO3`, the MIC is 16 µg/mL (≈ 54 µM) with Acinetobacter baumannii [6]; 0.06 µg/mL (≈ 0.202 µM) in the assay with Staphylococcus aureus [7]; above 32 µg/mL in the assay on Pseudomonas aeruginosa; above 32 µg/mL in the assay on Enterobacter cloacae; above 32 µg/mL with Klebsiella pneumoniae [8]; above 32 µg/mL with Escherichia coli [9].

For the molecule `OB1c2ccccc2N=C(S)N1c1cccnc1`, the MIC in assay [10] worked out at 8 µg/mL (≈ 31.4 µM).

The term ED50 denotes the midpoint of the dose-response relation. On to `Cc1c(C2CN(C(=O)/C=C/c3cnc4c(c3)CCC(=O)N4)C2)oc2ccccc12`, for which the MIC in [11] amounted to 0.5 µg/mL (≈ 1.29 µM). For the same molecule, the ED50 in the assay on Staphylococcus aureus [12] came to 0.9 mg/kg.

For `Cc1cc(=O)n(C)c2c3c4c(cc12)c(C)cc(=O)n4C(CN)CO3` (stereo unspecified), the MIC in the assay on Acinetobacter baumannii [6] was 2 µg/mL (≈ 6.15 µM); with Staphylococcus aureus [7] it was 0.05 µg/mL (≈ 0.154 µM); in the assay on Pseudomonas aeruginosa, above 16 µg/mL; in the assay on Enterobacter cloacae it was 0.5 µg/mL (≈ 1.54 µM); in the assay on Klebsiella pneumoniae [8] it was 1 µg/mL (≈ 3.07 µM); with Escherichia coli [9], 0.5 µg/mL (≈ 1.54 µM).

What is called MIC90 is an inhibitory concentration at the 90% level, which refers to growth in some studies and to a panel of isolates in others. Take `Cc1c(CN(C)C(=O)/C=C/c2cnc3c(c2)CCC(=O)N3)oc2ccccc12` [AFN-1252]: the figures for the pIC50 in assay [13] and in assay [21] were 7.85 and 5.02, respectively. Further, the MIC with Acinetobacter baumannii [14] was above 32 µg/mL; in the assay with Escherichia coli [15], above 32 µg/mL; with Klebsiella pneumoniae [16], above 32 µg/mL; with Staphylococcus aureus [19], 0.008 µg/mL (≈ 0.0213 µM). Besides, the MIC90 in assay [17] was 0.03 µg/mL (≈ 0.0799 µM); with Staphylococcus aureus [18], at most 0.008 µg/mL; in [20], at most 0.008 µg/mL.

Consider `CCc1cc(O)c(Oc2ccc(C(N)=O)cc2F)cc1F`, for which the ED50 was 40 mg/kg/day with Staphylococcus aureus [22] and 19.3 mg/kg/day with Staphylococcus aureus [27]. Also, the pIC50 in assay [23] and in assay [25] was 7.24 throughout. Further, the MIC90 came to 0.03 µg/mL (≈ 0.102 µM) with Staphylococcus aureus [24] and 0.12 µg/mL (≈ 0.409 µM) with Staphylococcus aureus [26].
